{"source": "patent US6492422B2", "about": "“Tricyclic sulfonamides and their derivatives as inhibitors of matrix metalloproteinases” (Warner-Lambert Company, priority 1998, dated 2002)", "key": {"[1]": {"target": "T1, MMP-9FL (gelatinase B full length enzyme) (Homo sapiens, UniProt P14780)", "T1 construct": "MMP-9-FL (gelatinase B full length enzyme)", "T1 sequence (P14780 94-707)": "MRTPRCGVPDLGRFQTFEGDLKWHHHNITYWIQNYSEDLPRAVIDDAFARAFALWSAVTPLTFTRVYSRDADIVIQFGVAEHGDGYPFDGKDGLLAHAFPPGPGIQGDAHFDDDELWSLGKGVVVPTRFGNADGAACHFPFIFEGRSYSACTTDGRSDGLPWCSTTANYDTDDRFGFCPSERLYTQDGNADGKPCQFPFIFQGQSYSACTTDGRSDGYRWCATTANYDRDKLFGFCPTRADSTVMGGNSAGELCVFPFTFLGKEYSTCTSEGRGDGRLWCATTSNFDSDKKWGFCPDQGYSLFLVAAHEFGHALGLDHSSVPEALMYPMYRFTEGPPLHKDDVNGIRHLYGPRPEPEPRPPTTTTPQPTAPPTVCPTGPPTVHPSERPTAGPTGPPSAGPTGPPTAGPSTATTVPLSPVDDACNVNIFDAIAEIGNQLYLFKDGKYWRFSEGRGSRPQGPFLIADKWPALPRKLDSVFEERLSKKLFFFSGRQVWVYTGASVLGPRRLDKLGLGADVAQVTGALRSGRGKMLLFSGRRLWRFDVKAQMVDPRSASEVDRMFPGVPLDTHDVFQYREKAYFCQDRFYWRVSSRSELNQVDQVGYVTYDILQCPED", "experiment": "MMP inhibition, thiopeptolide substrate, MMP-9FL", "format": "biochemical", "conditions": "thiopeptolide substrate Ac-Pro-Leu-Gly-thioester-Leu-Leu-Gly-OEt", "description": "(§1) Experiments were carried out with the full-length and catalytic domains of the proteinases. […] IC50 values were determined using a thiopeptolide substrate, Ac-Pro-Leu-Gly-thioester-Leu-Leu-Gly-OEt (Ye Q.-Z., Johnson L. L., Hupe D. J., and Baragi V., “Purification and Characterization of the Human Stromelysin Catalytic Domain Expressed in Escherichia coli,” Biochemistry, 1992;31:11231-11235; Ye Q.-Z., Johnson L. L., Yu A. E., and Hupe D., “Reconstructed 19 kDa catalytic domain of gelatinase A is an active proteinase,” i Biochemistry, 1995;34:47024708.) MMP-13CD was expressed from a synthetic gene and purified from Escherichia coli cell culture according to a previously described method (Ye Q.-Z., Johnson L. L., and Baragi V., “Gene synthesis and expression in E. coli for PUMP, a human matrix metalloproteinase,” Biochemical and Biophysical Research Communications, 1992;186:143-149)."}, "[2]": {"target": "T2, MMP-2FL (gelatinase A full length enzyme) (Homo sapiens, UniProt P08253)", "T2 construct": "Experiments were carried out with the full-length and catalytic domains of the proteinases", "T2 sequence (P08253 110-660)": "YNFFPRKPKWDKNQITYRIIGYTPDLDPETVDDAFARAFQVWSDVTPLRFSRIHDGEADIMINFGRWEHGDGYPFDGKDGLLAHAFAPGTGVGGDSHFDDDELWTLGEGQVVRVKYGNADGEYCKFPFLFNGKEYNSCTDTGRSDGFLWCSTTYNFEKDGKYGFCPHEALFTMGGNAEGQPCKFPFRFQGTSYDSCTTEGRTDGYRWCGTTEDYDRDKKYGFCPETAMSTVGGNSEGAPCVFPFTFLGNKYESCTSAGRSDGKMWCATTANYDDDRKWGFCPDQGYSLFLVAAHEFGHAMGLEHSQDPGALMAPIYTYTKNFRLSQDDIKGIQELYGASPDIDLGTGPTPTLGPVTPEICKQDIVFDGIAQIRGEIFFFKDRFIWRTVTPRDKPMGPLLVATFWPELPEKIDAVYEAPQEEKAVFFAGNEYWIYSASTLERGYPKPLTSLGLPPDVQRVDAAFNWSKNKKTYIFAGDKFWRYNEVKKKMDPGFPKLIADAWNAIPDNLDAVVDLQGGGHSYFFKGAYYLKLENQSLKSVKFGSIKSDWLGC", "experiment": "MMP inhibition, thiopeptolide substrate, MMP-2FL", "format": "biochemical", "conditions": "thiopeptolide substrate Ac-Pro-Leu-Gly-thioester-Leu-Leu-Gly-OEt", "description": "as §1"}, "[3]": {"target": "T3, MMP-3CD (stromelysin-1 catalytic domain) (Homo sapiens, UniProt P08254)", "T3 construct": "MMP-3CD (stromelysin-1 catalytic domain)", "T3 sequence (P08254 100-272 limits assumed)": "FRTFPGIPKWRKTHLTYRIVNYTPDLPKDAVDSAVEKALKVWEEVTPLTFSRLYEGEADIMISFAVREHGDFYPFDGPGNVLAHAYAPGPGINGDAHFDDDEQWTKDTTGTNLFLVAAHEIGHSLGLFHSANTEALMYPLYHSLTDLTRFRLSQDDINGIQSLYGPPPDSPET", "experiment": "MMP inhibition, thiopeptolide substrate, MMP-3CD", "format": "biochemical", "conditions": "thiopeptolide substrate Ac-Pro-Leu-Gly-thioester-Leu-Leu-Gly-OEt", "description": "as §1"}, "[4]": {"target": "T4, MMP-7FL (matrilysin full length enzyme) (Homo sapiens, UniProt P09237)", "T4 construct": "MMP-7FL (matrilysin full length enzyme)", "T4 sequence (P09237 95-267)": "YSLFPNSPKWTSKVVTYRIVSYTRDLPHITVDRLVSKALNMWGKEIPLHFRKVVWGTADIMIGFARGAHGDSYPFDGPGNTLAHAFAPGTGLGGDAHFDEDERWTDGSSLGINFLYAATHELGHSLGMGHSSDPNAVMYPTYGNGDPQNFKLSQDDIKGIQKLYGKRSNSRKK", "experiment": "MMP inhibition, thiopeptolide substrate, MMP-7FL", "format": "biochemical", "conditions": "thiopeptolide substrate Ac-Pro-Leu-Gly-thioester-Leu-Leu-Gly-OEt", "description": "as §1"}, "[5]": {"target": "T5, MMP-1FL (collagenase-1 full length enzyme) (Homo sapiens, UniProt P03956)", "T5 construct": "MMP-IFL (collagenase-1 full length enzyme)", "T5 sequence (P03956 100-469)": "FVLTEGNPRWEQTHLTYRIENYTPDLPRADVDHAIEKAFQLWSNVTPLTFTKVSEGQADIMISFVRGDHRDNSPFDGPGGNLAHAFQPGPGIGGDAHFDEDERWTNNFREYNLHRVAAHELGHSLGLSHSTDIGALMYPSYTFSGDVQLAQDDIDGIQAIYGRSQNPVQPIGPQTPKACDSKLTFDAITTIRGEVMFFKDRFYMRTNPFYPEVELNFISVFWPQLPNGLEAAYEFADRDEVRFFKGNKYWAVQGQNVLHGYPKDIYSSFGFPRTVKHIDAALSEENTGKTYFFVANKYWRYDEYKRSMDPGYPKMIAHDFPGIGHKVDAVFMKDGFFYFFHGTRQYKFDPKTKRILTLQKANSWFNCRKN", "experiment": "MMP inhibition, thiopeptolide substrate, MMP-1FL", "format": "biochemical", "conditions": "thiopeptolide substrate Ac-Pro-Leu-Gly-thioester-Leu-Leu-Gly-OEt", "description": "as §1"}, "[6]": {"target": "MMP-14CD (membrane-type MMP-1) (Homo sapiens, UniProt P50281)", "experiment": "MMP inhibition, thiopeptolide substrate, MMP-14CD", "format": "biochemical", "conditions": "thiopeptolide substrate Ac-Pro-Leu-Gly-thioester-Leu-Leu-Gly-OEt; catalytic domain", "description": "as §1"}, "[7]": {"target": "MMP-2CD (gelatinase A catalytic domain) (Homo sapiens, UniProt P08253)", "sequence (P08253 with tags, fused parts or gaps DEL222-396)": "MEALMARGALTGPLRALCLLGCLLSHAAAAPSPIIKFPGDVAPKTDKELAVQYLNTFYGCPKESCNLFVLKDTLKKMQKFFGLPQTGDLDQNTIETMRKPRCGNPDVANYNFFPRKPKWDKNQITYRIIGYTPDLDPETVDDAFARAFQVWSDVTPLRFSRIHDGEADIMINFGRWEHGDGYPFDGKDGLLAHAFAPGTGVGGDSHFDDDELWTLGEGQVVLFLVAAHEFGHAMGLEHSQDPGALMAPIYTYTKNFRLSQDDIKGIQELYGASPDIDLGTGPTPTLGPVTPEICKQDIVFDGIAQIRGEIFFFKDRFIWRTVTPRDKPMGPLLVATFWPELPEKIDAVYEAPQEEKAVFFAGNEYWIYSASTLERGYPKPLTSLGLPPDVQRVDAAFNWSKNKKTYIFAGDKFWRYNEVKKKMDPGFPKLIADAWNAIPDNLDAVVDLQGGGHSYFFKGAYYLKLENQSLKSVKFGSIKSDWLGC", "experiment": "MMP inhibition, thiopeptolide substrate, MMP-2CD", "format": "biochemical", "conditions": "thiopeptolide substrate Ac-Pro-Leu-Gly-thioester-Leu-Leu-Gly-OEt", "description": "as §1"}, "[8]": {"target": "T6, MMP-13CD (collagenase-3 catalytic domain) (Homo sapiens, UniProt P45452)", "T6 construct": "MMP-13CD (collagenase-3 catalytic domain); made in house; host or cells: Escherichia coli", "experiment": "MMP inhibition, thiopeptolide substrate, MMP-13CD", "format": "biochemical", "conditions": "thiopeptolide substrate Ac-Pro-Leu-Gly-thioester-Leu-Leu-Gly-OEt; catalytic domain expressed in Escherichia coli", "description": "as §1"}}}
{"compound": "CC(C)[C@@H](NS(=O)(=O)c1ccc2c3c(oc2c1)CCCC3)C(=O)O", "note": "[Example 1, (R) 3-Methyl-2-(6,7,8,9-tetrahydro-dibenzofuran-3-sulfonylamino)-butyric Acid]", "values": [{"measurement": "IC50", "setting": "[1]", "value": 30, "unit": "µM"}, {"measurement": "IC50", "setting": "[2]", "value": 0.335, "unit": "µM"}, {"measurement": "IC50", "setting": "[3]", "value": 0.046, "unit": "µM"}, {"measurement": "IC50", "setting": "[4]", "value": 82, "unit": "µM"}, {"measurement": "IC50", "setting": "[5]", "value": 6.7, "unit": "µM"}, {"measurement": "IC50", "setting": "[6]", "value": 0.38, "unit": "µM"}, {"measurement": "IC50", "setting": "[7]", "value": 0.037, "unit": "µM"}, {"measurement": "IC50", "setting": "[8]", "value": 3.45, "unit": "µM"}]}
{"compound": "CC(C)[C@H](NS(=O)(=O)c1ccc2c3c(oc2c1)CCCC3)C(=O)O", "note": "[Example 2, (S) 3-Methyl-2-(6,7,8,9-tetrahydro-dibenzofuran-3-sulfonylamino)-butyric Acid]", "values": [{"measurement": "IC50", "setting": "[1]", "value": 100, "unit": "µM"}, {"measurement": "IC50", "setting": "[2]", "value": 0.43, "unit": "µM"}, {"measurement": "melting point", "value": "162 to 165", "unit": "°C"}, {"measurement": "IC50", "setting": "[3]", "value": 0.0245, "unit": "µM"}, {"measurement": "IC50", "setting": "[4]", "value": 7.5, "unit": "µM"}, {"measurement": "IC50", "setting": "[5]", "value": 6.05, "unit": "µM"}, {"measurement": "IC50", "setting": "[6]", "value": 0.155, "unit": "µM"}, {"measurement": "IC50", "setting": "[7]", "value": 0.034, "unit": "µM"}, {"measurement": "IC50", "setting": "[8]", "value": 2.3, "unit": "µM"}]}
{"compound": "O=C(O)C[C@H](NS(=O)(=O)c1ccc2c3c(oc2c1)CCCC3)C(=O)O", "note": "[Example 3, (S) 2-(6,7,8,9-Tetrahydro-dibenzofuran-3-sulfonylamino)-succinic Acid]", "values": [{"measurement": "IC50", "setting": "[1]", "value": 100, "unit": "µM"}, {"measurement": "IC50", "setting": "[2]", "value": 0.45, "unit": "µM"}, {"measurement": "melting point", "value": "176 to 179", "unit": "°C"}, {"measurement": "IC50", "setting": "[3]", "value": 0.0056, "unit": "µM"}, {"measurement": "IC50", "setting": "[4]", "value": 3.2, "unit": "µM"}, {"measurement": "IC50", "setting": "[5]", "value": 16, "unit": "µM"}, {"measurement": "IC50", "setting": "[6]", "value": 0.048, "unit": "µM"}, {"measurement": "IC50", "setting": "[7]", "value": 0.0167, "unit": "µM"}, {"measurement": "IC50", "setting": "[8]", "value": 0.97, "unit": "µM"}]}
{"compound": "O=C(O)[C@H](CCc1ccccc1)NS(=O)(=O)c1ccc2c3c(oc2c1)CCCC3", "note": "[Example 4, (S) 4-Phenyl-2-(6,7,8,9-tetrahydro-dibenzofuran-3-sulfonylamino)-butyric Acid]", "values": [{"measurement": "IC50", "setting": "[1]", "value": 28, "unit": "µM"}, {"measurement": "IC50", "setting": "[2]", "value": 0.15, "unit": "µM"}, {"measurement": "melting point", "value": "167 to 169", "unit": "°C"}, {"measurement": "IC50", "setting": "[3]", "value": 0.0215, "unit": "µM"}, {"measurement": "IC50", "setting": "[4]", "value": 2.3, "unit": "µM"}, {"measurement": "IC50", "setting": "[5]", "value": 25, "unit": "µM"}, {"measurement": "IC50", "setting": "[6]", "value": 0.064, "unit": "µM"}, {"measurement": "IC50", "setting": "[7]", "value": 0.018, "unit": "µM"}, {"measurement": "IC50", "setting": "[8]", "value": 1.34, "unit": "µM"}]}
